Read-outs that look alike come from different tables or passages of the source.
Legend:
[1] = Test 9: Toxicity Test (acute oral toxicity, mice); conditions: mouse, in vivo, po
Experimental: A predetermined amount of a solution or suspension of a test compound in corn oil was orally administered to male mice having a body weight of 19 to 23 g (0.2 ml per 10 g of the body weight). After 7 days, the number of killed mice was counted and the influences on the mice were examined.

[2] = test system: sensitive green rice leafhopper (collected at Chigasaki); test: whole plant or invertebrate; type: in vivo; conditions: Nephotettix cincticeps, read-out: Mortality (%), Green Rice Leafhopper Collected at Chigasaki
Method in brief: (§1)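 Emulsifiable concentrate diluted to 100 or 20 ppm was sprayed, 3 ml per pot, onto hydroponic rice seedlings at 2–3 leaves. After air-drying, 10 female adults of the Nakagawara (resistant) or Chigasaki (sensitive) strain were released per caged pot. Mortality was counted at 24 h and averaged over three pots.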

[3] = test system: resistant green rice leafhopper (collected at Nakagawara); test: Test 3: Effect on Resistant Green Rice Leafhopper (collected at Nakagawara); type: in vivo, Nephotettix cincticeps Uhler (Green rice leafhopper); conditions: Nephotettix cincticeps, read-out: Mortality (%), Green Rice Leafhopper Collected at Nakagawara
Method in brief: as §1

[4] = test system: two-spotted spider mite; test: Test 6: Effect on Two-Spotted Spider mite Adults; type: in vivo; conditions: Tetranychus urticae
Experimental: (§2) To a mixture of 20 parts of the compound of the present invention and 20 parts of Sorpol SM-200 (registered tradename for the product supplied by Toho Chemical Industrial Co., Ltd.) was added 60 parts of xylol, and the mixture was suffciently blended. The obtained emulsifiable concentrate was diluted at a predetermined concentration with distilled water, and the obtained dilution was used.
A kidney bean leaf disc perforated with a cork borer (15 mm in diameter) was placed on water-impregnated absorbent cotton (2 cm×2 cm), and 10 adults of two-spotted spider mite were set free. A chemical dilution having a concentration of 100 ppm was applied with an applicator in an amount of 3 ml.
The leaf disc-placed absorbent cotton was placed in a thermostat chamber maintained at 25° C. After 24 hours, the number of killed adults was counted and the mortality was calculated. The test was made on three leaf discs and the average value was calculated.

[5] = test system: green peach aphid; test: Test 5: Effect on Green Peach Aphid; type: in vivo; conditions: Myzus persicae; 100 ppm; mortality class; 24 hours; read-out: Insecticidal Activity
Experimental: as §2
Seedlings (having 3 to 4 leaves) of an eggplant grown on a pot were inoculated with green peach aphids and the insects were allowed to grow. The number of the insects was counted. A chemical dilution having a concentration of 100 ppm, prepared in the same manner as described in Test 1, was applied with a spray gun at a rate of 10 ml per pot. Then, the pot was placed in a glass green house. After 24 hours, the number of living insects was counted and the mortality was calculated.
The test was made on three pots, and the average value was calculated. In Table 6, mark "A" indicates a mortality higher than 95%, mark "B" indicates a mortality of 80 to 95%, mark "C" indicates a mortality of 50 to 80%, and mark "D" indicates a mortality lower than 50%.

[6] = test system: diamond back moth; test: Test 4: Effect on Diamond Back Moth; type: in vivo; conditions: Plutella
Method in brief: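 Compound formulated as an emulsifiable concentrate, diluted in water to 100 or 20 ppm and sprayed at 3 ml per cup onto cabbage leaves holding 10 third-instar larvae. Mortality counted after 24 hours; mean of three cups.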

[7] = test system: German cockroach; test: Test 7: Effect on German Cockroach; type: in vivo; conditions: Blattella germanica
Method in brief: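 Petri dish floors were treated with 50 or 10 mg/m2 of compound (diluted emulsifiable concentrate) and air-dried. Ten male adult German cockroaches per dish were held at 25° C. Agonized and dead insects were counted after 24 hours, averaging two dishes.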

[8] = test system: tobacco cutworm; test: Test 1: Effect on Tobacco Cutworm (leaf immersion), mortality after 24 hours; type: in vivo; conditions: second-instar larvae, 25° C
Method in brief: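 Sweet-potato leaves dipped 10 s in emulsifiable concentrate diluted to 100 or 20 ppm, air-dried, then exposed to second-instar larvae at 25 °C. Mortality counted after 24 h, averaged over three cups.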

[9] = Test 8: Fish Toxicity; type: in vivo; conditions: carp, water; concentration at which 1/2 of the test fishes were killed within 48 hours; read-out: Fish Toxicity, TLm48
Experimental: A water tank having a width of 60 cm, a length of 30 cm and a height of 40 cm was filled with water, and 10 yearling carps having a body length of about 5 cm were set free in the tank and adapted to the environment in the tank. A test compound was applied so that the concentration in water was 10, 1 or 0.1 ppm. After 48 hours, the numbers of killed and living carps were counted and the influences on the fishes were examined.

[10] = test system: tobacco cutworm; test: Test 2: Tobacco Cutworm Larva Dipping Test, mortality after 24 hours; type: in vivo
Method in brief: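 Second- and fifth-instar larvae dipped 5 s in a water dilution of an emulsifiable concentrate at 100 or 20 ppm, blotted, then held on artificial diet at 25° C. Dead and living larvae counted after 24 hours; mortality averaged over three cups.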

[11] = 20 ppm, sensitive female adults, 24 hours
[12] = 100 ppm, sensitive female adults, 24 hours
[13] = 100 ppm, adults, 24 hours, 25° C, read-out: Mortality (%)
[14] = 20 ppm, third-instar larvae, 24 hours, read-out: Mortality (%)
[15] = 100 ppm, third-instar larvae, 24 hours, read-out: Mortality (%)
[16] = 10 mg/m^2, male adults, agonized and killed after 24 hours, read-out: Mortality (%)
[17] = 50 mg/m^2, male adults, agonized and killed after 24 hours, read-out: Mortality (%)
[18] = 24 h, read-out: Motality (%), Fifth-Instar Larvae
[19] = 24 h, read-out: Motality (%), Second-Instar Larvae

Structure (SMILES) | LD50 at 168 h [1] [mg/kg] | mortality at 20 ppm [2, 11] [%] | mortality at 100 ppm [2, 12] [%] | mortality at 20 ppm ([3]; 24 h) [%] | mortality at 100 ppm ([3]; 24 h) [%] | mortality at 100 ppm [4, 13] [%] | mortality at 100 ppm [5] [%] | mortality at 20 ppm [6, 14] [%] | mortality at 100 ppm [6, 15] [%] | mortality at 20 ppm [8] [%] | mortality at 100 ppm [8] [%] | LC50 at 48 h [9] [µg/mL] | further results
CCOCc1ccc(C(C)(C)COCc2cccc(Oc3ccccc3)c2)cc1 [Compound 82, 3-Phenoxybenzyl 2-(4-ethoxymethylphenyl)-2-methylpropyl ether] | > 500 | 80 | 100 | 100 | 100 | 90 | – | – | – | – | – | – | –
Cc1ccc(C(C)(C)COCc2cccc(Oc3ccccc3)c2)cc1Cl [Compound 73] | > 500 | – | – | – | – | – | > 95 | 90 | 100 | 100 | 100 | > 10 | mortality at 10 mg/m2 [7, 16]: 100%; mortality at 50 mg/m2 [7, 17]: 100%
CCOP(=S)(OCC)Oc1ccc(=O)n(-c2ccccc2)n1 [(d), O,O-diethyl-O-(3-oxo-2-phenyl-2H-pyridazin-6-yl)-phosphorothioate, reference compound] | – | – | – | – | – | – | – | – | – | – | – | – | mortality at 20 ppm ([2]; 24 h): 40%; mortality at 100 ppm ([2]; 24 h): 90%; mortality at 20 ppm ([3]; 20 ppm, resistant female adults, 24 hours): 10%; mortality at 100 ppm ([3]; 100 ppm, resistant female adults, 24 hours): 20%; mortality at 10 mg/m2 ([7]; 24 h): 50%; mortality at 50 mg/m2 ([7]; 24 h): 100%; mortality at 100 ppm ([4]; 24 h): 40%
CC(C)(COCc1cccc(Oc2ccccc2)c1)c1cc(Cl)cc(Cl)c1 [Compound 56, 3-Phenoxybenzyl 2-(3,5-dichlorophenyl)-2-methylpropyl ether] | > 500 | 90 | 100 | 100 | 100 | 80 | – | – | – | – | – | – | –
CC(C)(COCc1cccc(Oc2cccc(Cl)c2)c1)c1ccc(OC(F)F)cc1 [Compound 25, 3-(3-Chlorophenoxy)benzyl 2-(4-difluoromethoxyphenyl)-2-methylpropyl ether] | > 500 | 100 | 100 | 100 | 100 | 90 | – | – | – | – | – | – | –
CC(C)(COCc1cccc(Cc2ccccc2)c1)c1ccc(Cl)cc1 [Compound 35, 3-Benzylbenzyl 2-(4-chlorophenyl)-2-methylpropyl ether] | > 500 | 50 | 100 | 70 | 100 | 85 | – | – | – | – | – | > 10 | –
Cc1ccc(C(C)(C)COCc2cccc(Oc3ccc(Br)cc3)c2)cc1 [Compound 33, 3-(4-Bromophenoxy)benzyl 2-(4-methylphenyl)-2-methylpropyl ether] | > 500 | 100 | 100 | 100 | 100 | 95 | – | 90 | 100 | 90 | 100 | > 10 | –
C#CCOc1ccc(C(C)(C)COCc2cccc(Oc3ccccc3)c2)cc1 [Compound 98, 3-Phenoxybenzyl 2-(4-propargyloxyphenyl)-2-methylpropyl ether] | > 500 | – | – | – | – | 100 | – | – | – | 100 | 100 | – | –
CCOc1ccc(C(C)(C)COCc2cccc(Oc3ccccc3)c2)cc1C [Compound 90, 3-Phenoxybenzyl 2-(4-ethoxy-3-methylphenyl)-2-methylpropyl ether] | > 500 | 100 | 100 | 100 | 100 | 100 | – | 100 | 100 | 100 | 100 | – | mortality at 10 mg/m2 [7, 16]: 90%; mortality at 50 mg/m2 [7, 17]: 100%; mortality at 20 ppm ([10]; 20 ppm, fifth-instar larvae, 24 hours, read-out: Motality (%), Fifth-Instar Larvae): 90%; mortality at 20 ppm ([10]; 20 ppm, second-instar larvae, 24 hours, read-out: Motality (%), Second-Instar Larvae): 100%; mortality at 100 ppm ([10]; 100 ppm, fifth-instar larvae, 24 hours, read-out: Motality (%), Fifth-Instar Larvae): 100%; mortality at 100 ppm ([10]; 100 ppm, second-instar larvae, 24 hours, read-out: Motality (%), Second-Instar Larvae): 100%
CCCCCOc1ccc(C(C)(C)COCc2cccc(Oc3ccccc3)c2)cc1 [Compound 62, 3-Phenoxybenzyl 2-[4-(n-pentyloxy)phenyl]-2-methylpropyl ether] | > 500 | – | – | – | – | – | 80 to 95 | 50 | 100 | 80 | 100 | > 1 | –
CCC(C)(COCc1cccc(Oc2ccc(Br)cc2)c1)c1ccc(F)cc1 (centres unmarked) [Compound 16, 3-(4-bromophenoxy)benzyl 2-(4-fluorophenyl)-2-ethylpropyl ether] | > 500 | 90 | 100 | 100 | 100 | 90 | – | – | – | – | – | – | –
CCC(C)(COCc1cccc(Oc2ccccc2)c1)c1ccc(Cl)c(Cl)c1 (centres unmarked) [Compound 52, 3-Phenoxybenzyl 2-(3,4-dichlorophenyl)-2-ethylpropyl ether] | > 500 | 90 | 100 | 90 | 100 | – | > 95 | 90 | 100 | – | – | > 10 | mortality at 10 mg/m2 [7, 16]: 90%; mortality at 50 mg/m2 [7, 17]: 100%
CCOc1ccc(C(C)(C)COCc2cccc(Oc3ccccc3)c2)cc1 [Compound 55, 3-Phenoxybenzyl 2-(4-ethoxyphenyl)-2-methylpropyl ether] | > 500 | – | – | 100 | 100 | – | > 95 | – | – | 100 | 100 | > 0.1 | mortality at 20 ppm ([2]; 24 h): 100%; mortality at 100 ppm ([2]; 24 h): 100%; mortality at 20 ppm ([6]; 24 h): 100%; mortality at 100 ppm ([6]; 24 h): 100%; mortality at 10 mg/m2 ([7]; 24 h): 100%; mortality at 50 mg/m2 ([7]; 24 h): 100%; mortality at 20 ppm [10, 18]: 100%; mortality at 100 ppm [10, 18]: 100%; mortality at 20 ppm [10, 19]: 100%; mortality at 100 ppm [10, 19]: 100%

From US4570005A, “Process for the preparation of 2-arylpropyl ether or thioether derivatives” (priority 1980, dated 1986)
